Data from US20260224588A1, “BENZODIAZEPINONE-DERIVED INHIBITORS OF EGFR AND HER2” (The Research Foundation for the State University of New York, priority 2023, published 2026).
“Also recorded” adds a separate entry of the source. Read-outs that look alike come from different tables or passages of the source.

Key:
[1] = target: T1, EGFR L858R/T790M/C797S kinase domain (Homo sapiens, UniProt P00533, C797S/L858R/T790M); assay: HTRF-based activity assay; format: biochemical
T1 construct: The EGFR kinase domain (residues 696-1022) was cloned into pTriEx; 6xHis (N, cleaved yes); GST (N, cleaved yes); made in house; host or cells: SF9 insect cells (baculovirus)
Method: (§1) Protein expression and purification. The EGFR kinase domain (residues 696-1022) was cloned into pTriEx with an N-terminal 6×His-glutathione S-transferase (GST) fusion tag followed by a TEV protease cleavage site. EGFR WT, L858R, L858R/T790M, L858R/T790M/C797S was expressed after baculoviral infection in SF9 cells and EGFR(T790M/V948R) was expressed in SF21 cells. Briefly, cells were pelleted and resuspended in lysis buffer composed of 50 mM Tris pH 8.0, 500 mM NaCl, 1 mM tris(2-carboxyethyl)phosphine (TCEP), and 5% glycerol. Cells were lysed via sonication prior to ultracentrifugation at >200,000 g for 1 h. Imidazole pH 8.0 was added to the supernatant for a final concentration of 40 mM and flowed through a column containing Ni-NTA agarose beads. The resin was washed with lysis buffer supplemented with 40 mM imidazole and eluted with lysis buffer containing 200 mM imidazole. Eluted EGFR kinase domain was dialyzed overnight in the presence of 5% (w/w) TEV protease against dialysis buffer containing 50 mM Tris pH 8.0, 500 mM NaCl, 1 mM TCEP, and 5% glycerol. The cleaved protein was passed through Ni-NTA resin to remove the 6×His-GST fusion protein and TEV prior to size exclusion chromatography on a prep-grade Superdex S200 column in 50 mM Tris pH 8.0, 500 mM NaCl, 1 mM TCEP, and 5% glycerol.
(§2) HTRF Assays. Biochemical assays for EGFR domains were carried out using a homogeneous time-resolved fluorescence (HTRF) KinEASE-TK (Cisbio) assay, as described previously. Assays were optimized for ATP concentration of 100 μM with enzyme concentrations WT EGFR 10 nM, L858R 0.1 nM, L858R/T790M at 0.02 nM and L858R/T790M/C797S at 0.02 nM. Inhibitor compounds in DMSO were dispensed directly in 384-well plates with the D300 digital dispenser (Hewlett Packard) followed immediately by the addition of aqueous buffered solutions using the Multidrop Combi Reagent Dispenser (Thermo Fischer). […] The curves were fitted using a non-linear regression model with a sigmoidal dose response.

[2] = target: T2, EGFR L858R kinase domain (Homo sapiens, UniProt P00533, L858R); assay: HTRF-based activity assay; format: biochemical
T2 construct: The EGFR kinase domain (residues 696-1022) was cloned into pTriEx; 6xHis (N, cleaved yes); GST (N, cleaved yes); made in house; host or cells: SF9 insect cells (baculovirus)
Method: as §1, §2

[3] = target: T3, WT EGFR kinase domain (Homo sapiens, UniProt P00533); assay: HTRF-based activity assay; format: biochemical
T3 construct: The EGFR kinase domain (residues 696-1022) was cloned into pTriEx; 6xHis (N, cleaved yes); GST (N, cleaved yes); made in house; host or cells: SF9 insect cells (baculovirus)
Method: as §1, §2

[4] = target: T4, EGFR L858R/T790M kinase domain (Homo sapiens, UniProt P00533, L858R/T790M); assay: HTRF-based activity assay; format: biochemical
T4 construct: The EGFR kinase domain (residues 696-1022) was cloned into pTriEx; 6xHis (N, cleaved yes); GST (N, cleaved yes); made in house; host or cells: SF9 insect cells (baculovirus)
Method: as §1, §2

[5] = test system: EGFR (L858R/T790M) in H1975 lung cancer cells; assay: Western blotting of EGFR, ERK1/2 and AKT phosphorylation; format: cell-based, human; conditions: 6 hours treatment
Method: FIG. 2. […] All experiments performed after 6 hours treatments of inhibitors or DMSO controls and Western blots are representative of at least three independent experiments.
Western blotting. Cells were collected and lysed with lysis buffer (5M NaCl, 1M TRIS pH 8.0, 10% SDS, 10% Triton X-100 and a tablet of protease inhibitors) and processed for Western blotting analysis. Primary antibodies used; phospho-EGFR (Tyr1068; #2234, 1:1,000), EGFR (#4267; 1:1,000), phospho-AKT (Ser473; #4060, 1:1,000), AKT (#9272, 1:1,000), phospho-ERK1/2 (Thr202/Tyr204; #4370, 1:1,000), and ERK1/2 (#4695, 1:1,000) antibodies; were purchased from Cell Signaling Technology. Secondary Goat anti-rabbit IgG starbright blue 700 and Anti-tubulin hFAB Rhodamine Tubulin were purchased from Bio-rad.

[6] = test system: L858R EGFR mutant Ba/F3 cells; conditions: cited from earlier work
[7] = test system: L858R/T790M EGFR mutant Ba/F3 cells; conditions: from literature (footnotes a, c), read-out: Anti-proliferative EC50 ± SE, LR/TM; cited from earlier work
[8] = test system: wildtype EGFR Ba/F3 cells; conditions: from literature (footnotes a, c), read-out: Anti-proliferative EC50 ± SE, wt; cited from earlier work
[9] = test system: wildtype HER2 Ba/F3 cells; conditions: from Heppner et al. 2022, read-out: Anti-proliferative EC50 ± SE, HER2; cited from earlier work
[10] = 100 μM ATP, enzyme 0.1 nM, read-out: Biochemical EGFR IC50, LR
[11] = 100 μM ATP, enzyme 0.02 nM, read-out: Biochemical EGFR IC50, LRTMCS
[12] = 100 μM ATP, enzyme 0.02 nM, read-out: Biochemical EGFR IC50, LRTM
[13] = from literature (footnotes a, c), read-out: Anti-proliferative EC50 ± SE, LR

T4 sequence (P00533 696-1022 T790M/L858R): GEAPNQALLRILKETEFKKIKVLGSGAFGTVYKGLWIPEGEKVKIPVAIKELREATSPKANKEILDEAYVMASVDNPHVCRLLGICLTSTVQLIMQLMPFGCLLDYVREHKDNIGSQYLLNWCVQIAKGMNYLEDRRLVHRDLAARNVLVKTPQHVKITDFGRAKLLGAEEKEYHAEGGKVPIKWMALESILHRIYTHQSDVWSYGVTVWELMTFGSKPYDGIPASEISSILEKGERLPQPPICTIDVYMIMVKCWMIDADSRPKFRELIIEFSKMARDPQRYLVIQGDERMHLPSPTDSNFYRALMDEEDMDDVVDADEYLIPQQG
T1 sequence (P00533 696-1022 T790M/C797S/L858R): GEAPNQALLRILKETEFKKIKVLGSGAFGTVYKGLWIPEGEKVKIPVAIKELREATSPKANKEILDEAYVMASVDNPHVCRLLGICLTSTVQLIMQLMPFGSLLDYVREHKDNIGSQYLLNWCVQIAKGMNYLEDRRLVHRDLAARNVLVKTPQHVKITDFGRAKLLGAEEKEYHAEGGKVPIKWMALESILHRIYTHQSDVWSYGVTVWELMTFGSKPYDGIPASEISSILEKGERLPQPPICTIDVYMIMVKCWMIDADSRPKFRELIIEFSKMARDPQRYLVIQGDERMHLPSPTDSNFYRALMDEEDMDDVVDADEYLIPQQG
T2 sequence (P00533 696-1022 L858R): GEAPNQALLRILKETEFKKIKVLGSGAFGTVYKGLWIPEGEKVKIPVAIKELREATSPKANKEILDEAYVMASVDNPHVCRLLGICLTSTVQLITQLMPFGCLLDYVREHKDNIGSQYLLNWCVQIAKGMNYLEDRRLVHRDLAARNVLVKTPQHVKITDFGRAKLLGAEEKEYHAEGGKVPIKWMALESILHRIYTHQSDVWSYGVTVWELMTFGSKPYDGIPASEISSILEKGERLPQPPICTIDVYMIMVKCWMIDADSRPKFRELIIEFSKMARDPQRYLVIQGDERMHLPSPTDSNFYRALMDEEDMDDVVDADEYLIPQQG
T3 sequence (P00533 696-1022): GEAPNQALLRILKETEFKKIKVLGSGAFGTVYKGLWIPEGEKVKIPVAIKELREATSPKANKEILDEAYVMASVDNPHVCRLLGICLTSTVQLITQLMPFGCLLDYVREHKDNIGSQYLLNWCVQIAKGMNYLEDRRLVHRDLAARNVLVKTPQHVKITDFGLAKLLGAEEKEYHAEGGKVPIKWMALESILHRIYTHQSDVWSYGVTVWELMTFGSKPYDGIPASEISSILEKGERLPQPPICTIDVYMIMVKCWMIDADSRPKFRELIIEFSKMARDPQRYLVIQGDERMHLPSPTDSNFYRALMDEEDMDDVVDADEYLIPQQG

Row | Structure (SMILES) | IC50 [2, 10] [nM] | IC50 [1, 11] [nM] | IC50 [4, 12] [nM] | EC50 [6, 13] [nM] | further results
1 | CSc1nc(-c2cccc(CN3C(=O)c4ccccc4Nc4ccc(F)cc43)c2)c(-c2ccnc(NC(C)=O)c2)[nH]1 [Compound 1, N-(4-(4-(3-((8-Fluoro-11-oxo-5,11-dihydro-10H-dibenzo[b,e][1,4]diazepin-10-yl)methyl)phenyl)-2-(methylthio)-1H-imidazol-5-yl)pyridin-2-yl) acetamide] | 1300 ± 100 | – | – | – | IC50 ([1]; read-out: IC50 values, LRTMCS): > 1000 nM; IC50 ([2]; read-out: IC50 values, LR): > 1000 nM; IC50 ([3]; read-out: IC50 values, WT EGFR): > 1000 nM; IC50 ([4]; read-out: IC50 values, LRTM): > 1000 nM
2 | CSc1nc(-c2cccc(NC(=O)c3cccc4c3NC(=O)c3ccccc3N4)c2)c(-c2ccnc(NC(C)=O)c2)[nH]1 [Compound 2, N-(3-(5-(2-Acetamidopyridin-4-yl)-2-(methylthio)-1H-imidazol-4-yl)phenyl)-11-oxo-10,11-dihydro-5H-dibenzo[b,e][1,4]diazepine-9-carboxamide] | 1.5 ± 0.1 | 0.064 ± 0.004 | 0.059 ± 0.005 | – | EGFR, ERK1/2 and AKT phosphorylation (Western blot) [5]: less effective; also recorded: suppresses EGFR phosphorylation
3 | O=C1c2ccccc2Nc2ccc(F)cc2N1Cc1ccccc1 [DDC4002] | – | – | – | > 10000 | EC50 ([6]; experiments that include cetuximab, from De Clercq and Heppner et al. 2019, read-out: Anti-proliferative EC50 ± SE, LR): > 10000 nM
4 | C=CC(=O)Nc1cc(Nc2nccc(-c3cn(C)c4ccccc34)n2)c(OC)cc1N(C)CCN(C)C [Osimertinib] | – | – | – | 3.3 ± 0.6 | EC50 [7]: 8 nM; EC50 [8]: 110 ± 40 nM; EC50 [9]: 34 ± 8 nM

More lines, main results first:

Row | IC50 [2, 10] [nM] | IC50 [1, 11] [nM] | IC50 [4, 12] [nM] | Structure (SMILES) | EC50 [6, 13] [nM] | further results
5 | 1.2 ± 0.09 | 0.063 ± 0.005 | 0.051 ± 0.005 | CCc1nc(-c2cccc(NC(=O)c3cccc4c3NC(=O)c3ccccc3N4)c2)c(-c2ccnc(NC(C)=O)c2)[nH]1 [Compound 3, N-(3-(5-(2-Acetamidopyridin-4-yl)-2-ethyl-1H-imidazol-4-yl)phenyl)-11-oxo-10,11-dihydro-5H-dibenzo[b,e][1,4]diazepine-9-carboxamide] | – | –
6 | 1.1 ± 0.2 | 1 ± 0.1 | 0.87 ± 0.09 | CCc1nc(-c2cccc(NC(=O)c3cccc4c3NC(=O)c3ccccc3N4)c2)c(-c2ccnc(Nc3ccccc3)c2)[nH]1 [Compound 5, N-(3-(2-ethyl-5-(2-(phenylamino)pyridin-4-yl)-1H-imidazol-4-yl)phenyl)-11-oxo-10,11-dihydro-5H-dibenzo[b,e][1,4]diazepine-9-carboxamide] | – | IC50 ([3]; 100 μM ATP, enzyme 10 nM, read-out: Biochemical EGFR IC50, wt): < 10 nM
